Measured values taken from US20120157401A1, “METHODS FOR TREATING NEUROFIBROMATOSIS” (PTC Therapeutics, Inc., priority 2009, published 2012).
Marks after values point to notes of the source that are not given here.

Assays:
[1] = test system: Human VEGF-A; assay: HT1080 xenograft selectivity studies: intratumoral VEGF-A ELISA; format: in vivo; conditions: Study 5, 15-days, treatment initiated at ~600 mm^3
Text: Experimental Design. […] All of these factors can be produced at tumor sites, and all may support tumor growth and metastases. See Yoon et al., Circ Res. 2003, 93(2):87 90; Ferrara et al., Nat. Rev. Drug Discov. […] Biophys. Acta 2004,1654(1):79 94; Saharinen et al., Trends Immunol. 2004, 25(7):387 95. There is also evidence that VEGF-A may stimulate production of P1GF by a post transcriptional mechanism. See Yao et al., FEBS Lett. 2005, 579(5):1227 34. VEGF-B was not assessed. […] See Vagner at al., Mol. Cell. Biol. 1995, 15(1):35 44; Hellen et al., Genes Dev. 2001, 15(13):1593 612. The survivin protein was similarly evaluated because the survivin mRNA has an IRES. PDGF was assessed because this protein has angiogenic activity and its mRNA contains an IRES. See Sella et al., Mol. Cell. Biol. 1999, 19(8):5429 40; Hellen et al., supra. Endostatin was included because antiangiogenic treatment in vivo has shown that compensatory […] in endogenous angiogenic inhibitors such as endostatin, thrombospondin, and angiostatin, results in a more pro angiogenic environment. See Sim, Angiogenesis, 1998, 2(1):37-48.
In all of these experiments, HT1080 cells (5×10^6 cells/mouse) were implanted subcutaneously in male athymic nude mice. When tumors had become established, mice were divided into groups (10 mice/group). […] Tumor size was measured by calipers at the beginning and end of treatment. […]

[2] = test system: LNCaP xenografts; assay: LNCaP prostate cancer xenograft: tumor growth (Table 20); format: in vivo, athymic nude mice
Method: Experimental Design. The LNCaP cell line is derived from a lymph node metastasis.
Tumor size was measured by calipers at periodic intervals during the study. When the mean tumor size in a mouse exceeded 1500 mm^3, mice in that group were sacrificed and both tumor and plasma were assayed for pathologic VEGF concentration as described in Section 9.1.1.1.

[3] = Single-dose oral toxicity study in rats; format: in vivo
Method: A battery of genotoxicity studies was also performed. […] The L23 vehicle was used.
Because maximal exposure occurred at 100 mg/kg, this dose is considered the NOAEL for 1 day of dosing.

[4] = In vitro plasma protein binding of 14C-radiolabeled Compound #10; format: in vitro ADME, mice, rats, dogs, monkeys, and humans; conditions: mouse, rat, dog, monkey, human, all species, 0.05 to 50 μg/mL, read-out: Plasma protein binding, overall mean
[5] = Oral toxicokinetics in dogs; format: in vivo, beagle dogs
Method: The pharmacokinetic evaluations in mice were adjuncts to the primary pharmacodynamic xenograft studies. The evaluations in rats included toxicokinetic assessments in single-dose, 7-day, and 28-day toxicology studies as well as a mass-balance study after a single oral dose of ^14C-Compound #10. The evaluations in dogs included toxicokinetic assessments in 7-day and 28-day toxicology studies. In the studies performed, rodents were dosed once daily with Compound #10 formulated in vehicle and administered via oral gavage.

[6] = 7-day oral toxicity study in dogs; format: in vivo
[7] = test system: tumor vessels (CD31 endothelial cells); assay: Intratumoral microvessel density, anti-murine CD31 immunostain, HT1080 xenografts; format: in vivo, athymic nude mice; conditions: racemic mixture, 5 mg/kg of Compound #10 oral BID, 10 days
Method: Experimental Design. HT1080 cells (5×10^6 cells/mouse) were implanted subcutaneously in male athymic nude mice.
At the end of treatment, the mice were sacrificed. Excised tumors were assayed by ELISA for VEGF content as described in Section 9.1.1.1, and were sectioned and immunostained with an anti murine CD31 antibody that is specific for endothelial cells.

[8] = test system: VEGF189 and VEGF206 isoforms; assay: In-Cell Western / Western blot of matrix associated VEGF189/206 production in HT1080 cells; format: cell-based, human; conditions: HT1080, normoxic, 48 hours
Method: Experimental Design. HT1080 (human fibrosacoma) cell cultures were established under normoxic conditions (21% oxygen). HT1080 cells constitutively overproduce VEGF even under normoxic conditions. […] At the completion of treatment, the cells were washed and harvested. Cells were incubated with a primary antibody that recognizes the VEGF189 and VEGF206 isoforms. Infrared-dye labeled antibodies were applied secondarily, and the amounts of VEGF189 and VEGF206 were determined using the IN-CELL WESTERN® assay and ODYSSEY® infrared imaging system (Li-Cor, Lincoln, Nebr., USA); results are expressed as percentage inhibition relative to vehicle treated controls. Conventional Western blotting using the same primary antibody was also performed to confirm the presence of the matrix associated isoforms; for these experiments actin was used as a loading control. Actin is a ubiquitous housekeeping protein that is not known to be post transcriptionally regulated.

[9] = target: T1, CYP2D6 (Homo sapiens, UniProt P10635); assay: CYP inhibition in human hepatic microsomes / recombinant isoenzymes: CYP2D6; format: in vitro ADME; conditions: human hepatic microsomes or recombinant isoenzymes
T1 construct: host or cells: human hepatic microsomes or recombinant isoenzyme (not distinguished)
Text: It is possible that in certain clinical trial subjects, such agents may need to be adjusted for dosing or replaced by alternative agents that are not metabolized by CYP2D6, particularly when such agents may have a low therapeutic index.

[10] = test system: normal human keratinocyte; assay: ATP viability assay in keratinocytes; format: cell-based; conditions: any concentration tested
Method: Experimental Design. Nontransformed normal human keratinocyte cell cultures were established under normoxic conditions (21% oxygen). […] At the completion of treatment, cells were assessed for viability with an ATP assay and conditioned media were evaluated for VEGF protein levels by ELISA (as described in Section 9.1.1.1).

[11] = test system: HT1080 tumor cells in vivo; assay: HT1080 xenograft studies of Compound 1205, Compound #10 and Compound 1330: tumor growth; parameters: species or system athymic nude mice; conditions: Study 24a, 10 mg/kg QD
Text: Experimental Design. HT1080 cells (5×10^6 cells/mouse) were implanted subcutaneously in male athymic nude mice. […] For comparison, Compound #10 was included in this study.

[12] = Micronucleus study in rats by the oral route; format: in vivo
Method: Genotoxicity was assessed in a battery of in vitro and in vivo studies that included a bacterial reverse mutation study, a chromosome aberration study in Chinese hamster ovary (CHO) cells, and a micronucleus study in rats by the oral route. The in vitro studies were performed in the presence and absence of an exogenous metabolic activation system.

[13] = LNCaP xenografts, male athymic nude mice, 10 mg/kg M-W-F oral gavage

T1 sequence (P10635 whole entry): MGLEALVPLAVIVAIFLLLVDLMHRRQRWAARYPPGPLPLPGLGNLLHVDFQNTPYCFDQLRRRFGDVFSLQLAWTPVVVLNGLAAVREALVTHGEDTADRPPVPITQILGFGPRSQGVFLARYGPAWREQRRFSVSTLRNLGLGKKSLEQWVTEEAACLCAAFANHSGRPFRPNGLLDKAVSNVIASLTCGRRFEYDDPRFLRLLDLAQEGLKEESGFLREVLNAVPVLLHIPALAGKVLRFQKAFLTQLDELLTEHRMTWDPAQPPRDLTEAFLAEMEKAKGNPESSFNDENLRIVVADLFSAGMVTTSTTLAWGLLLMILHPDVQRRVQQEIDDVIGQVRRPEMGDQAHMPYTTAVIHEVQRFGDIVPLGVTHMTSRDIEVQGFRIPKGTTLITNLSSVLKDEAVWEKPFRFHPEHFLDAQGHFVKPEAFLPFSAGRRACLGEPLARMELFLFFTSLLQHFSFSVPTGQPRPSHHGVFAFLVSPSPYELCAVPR

With `COc1ccc(C2c3[nH]c4ccc(Cl)cc4c3CCN2C(=O)Oc2ccc(Cl)cc2)cc1` (racemic) [Compound #10] the “Decrease in intratumoral VEGF levels” value [1] was 78%, the “Time to tumor progression (time to reach ≧1000 mm^3)” value ([2]; 10 mg/kg M-W-F) was “prolonged” and the “Toxicity on observing the animals” value ([2]; LNCaP xenograft mice) was “no evidence of toxicity”. The “Mean % Inhibition of Tumor Size vs Vehicle at Day 35” value [2, 13] was 36%, the “Median Time to Tumor Size ≧1000 mm^3” value [2, 13] was 38 days and the “Dose of maximal exposure” value ([3]; Sprague Dawley, rat, in vivo, po, 1 day) was 100 mg/kg. The NOAEL at 1 day ([3]; Sprague Dawley, rat, in vivo, rats, single oral gavage, read-out: NOAEL for 1 day of dosing) was 100 mg/kg, the “Clinical or clinical pathological toxicities” value ([3]; rats, single oral 100, 200, or 400 mg/kg) was “no notable clinical or clinical pathological toxicities” and the fraction unbound [4] was ≤ 0.005. The Oral bioavailability [5] was “orally bioavailable”, the “Dose of maximal exposures” value ([6]; 7 consecutive days) was 30 mg/kg/dose BID and the Treatment-related clinical findings ([6]; 7 days, males and females) was “increased incidence and frequency of soft stools”. For the same molecule, the “Total volume of tumor vessels and diameters of vessels” value [7] was “visibly reduced”, the Tumor vessel count [7] was “unchanged” and the “Inhibition of VEGF189 and VEGF206 isoforms” value [8] was “potent concentration-dependent inhibition”. For the same molecule, the “Inhibition of CYP2D6 isoenzyme activity” value [9] was “inhibits the activity”, the “Toxicity (ATP viability)” value [10] was “No toxicity was observed” and the “Difference vs. vehicle in median number of days to reach 1000 mm^3” value [11] was 8** Days. The “Mean difference in tumor growth rate at the Day that the vehicle-treated tumors taken off study” value ([11]; Day 11) was 59%**, the “Final mean terminal tumor size in treatment group” value ([11]; Xeno) was 1460 mm^3 and the “Genotoxic effects, micronucleus in rats” value [12] was “no evidence of genotoxic effects”.
